One may read the IC50 as the concentration that inhibits the measured activity by half. Read a low IC50 as greater potency. The term EC50 denotes the concentration needed to bring the measured effect to its halfway point. Higher therefore signals a need for much substance.

These results are taken from paper PMC7856035 (Neuropharmacology, 2020).

In assay [1] the target is T1, 5-HT4 receptor (Rattus norvegicus, UniProt Q62758). Briefly: block of […] 5-HT-induced PKA-RII phosphorylation in rat DRG neurons. The format is cell-based.
T1 sequence (Q62758 whole entry): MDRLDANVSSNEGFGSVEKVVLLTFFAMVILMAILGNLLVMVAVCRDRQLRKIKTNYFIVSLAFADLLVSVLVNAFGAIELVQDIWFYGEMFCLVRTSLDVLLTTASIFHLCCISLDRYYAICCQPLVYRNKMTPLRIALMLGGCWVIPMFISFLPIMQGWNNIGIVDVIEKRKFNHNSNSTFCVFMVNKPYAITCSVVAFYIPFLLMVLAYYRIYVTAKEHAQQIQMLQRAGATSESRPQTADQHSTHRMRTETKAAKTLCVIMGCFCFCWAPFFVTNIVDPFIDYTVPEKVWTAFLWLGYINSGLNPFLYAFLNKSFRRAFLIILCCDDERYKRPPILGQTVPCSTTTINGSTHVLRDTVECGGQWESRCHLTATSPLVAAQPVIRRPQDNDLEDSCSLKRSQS
The target in assay [2] is T1, 5-HT4 receptor. Briefly: agonist-induced PKA-RII phosphorylation in rat DRG neurons, reduced by GR113808. The format is cell-based.

`Cn1cc(C(=O)OCC2CCN(CCNS(C)(=O)=O)CC2)c2ccccc21` [GR, GR113808]: in assay [1], the IC50 amounted to 5.55 nM.
In assay [2], `COCCCN1CCC(NC(=O)c2cc(Cl)c(N)c3c2OCC3)CC1` [Ppr, prucalopride] had an EC50 of 10.2 nM.
